The Kinase Knowledgebase extract (Sharma et al. 2016)

Target: EGFR (human) (UniProt P00533)
Details: hn5

EGFR (human), sequence (P00533 whole entry, looked up): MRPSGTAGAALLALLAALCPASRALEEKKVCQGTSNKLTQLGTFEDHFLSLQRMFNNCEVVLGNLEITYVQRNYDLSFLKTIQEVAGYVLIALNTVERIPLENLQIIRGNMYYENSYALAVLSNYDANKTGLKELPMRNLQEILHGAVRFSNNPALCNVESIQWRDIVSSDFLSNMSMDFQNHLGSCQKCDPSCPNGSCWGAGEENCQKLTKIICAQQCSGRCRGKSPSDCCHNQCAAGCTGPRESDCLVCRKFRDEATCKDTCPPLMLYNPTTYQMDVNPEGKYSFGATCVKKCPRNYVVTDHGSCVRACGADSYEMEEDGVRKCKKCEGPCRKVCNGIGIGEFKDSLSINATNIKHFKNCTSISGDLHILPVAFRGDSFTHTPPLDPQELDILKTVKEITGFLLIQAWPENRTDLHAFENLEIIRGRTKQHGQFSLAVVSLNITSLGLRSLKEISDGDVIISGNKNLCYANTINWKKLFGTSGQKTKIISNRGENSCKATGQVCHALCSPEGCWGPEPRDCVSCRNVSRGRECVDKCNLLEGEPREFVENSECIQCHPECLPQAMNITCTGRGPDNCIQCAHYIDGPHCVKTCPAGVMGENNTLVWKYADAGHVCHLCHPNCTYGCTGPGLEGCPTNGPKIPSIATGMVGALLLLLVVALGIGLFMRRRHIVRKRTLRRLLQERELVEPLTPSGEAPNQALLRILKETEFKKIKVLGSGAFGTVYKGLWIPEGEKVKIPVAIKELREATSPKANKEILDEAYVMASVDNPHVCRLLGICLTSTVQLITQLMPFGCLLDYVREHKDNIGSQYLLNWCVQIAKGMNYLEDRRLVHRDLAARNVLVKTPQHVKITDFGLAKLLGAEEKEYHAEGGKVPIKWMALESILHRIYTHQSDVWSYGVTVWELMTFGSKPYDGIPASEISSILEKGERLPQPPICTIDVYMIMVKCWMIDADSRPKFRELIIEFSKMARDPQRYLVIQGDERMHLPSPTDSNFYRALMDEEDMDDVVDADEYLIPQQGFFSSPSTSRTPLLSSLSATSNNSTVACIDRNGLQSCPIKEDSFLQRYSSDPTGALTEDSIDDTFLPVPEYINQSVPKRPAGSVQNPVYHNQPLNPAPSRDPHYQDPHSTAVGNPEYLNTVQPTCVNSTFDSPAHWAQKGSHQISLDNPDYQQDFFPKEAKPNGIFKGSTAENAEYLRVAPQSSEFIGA

Row | IC50 [µM] | SMILES
1 | < 5 | CS(=O)(=O)CCNCc1nc(-c2ccc3ncnc(Nc4ccc(OCc5cccc(F)c5)cc4)c3c2)cs1
2 | < 5 | CS(=O)(=O)CCNCc1nc(-c2ccc3ncnc(Nc4ccc(OCc5cccc(C(F)(F)F)c5)cc4)c3c2)cs1
3 | < 5 | CS(=O)(=O)CCNCc1ccc(-c2ccc3ncnc(Nc4ccc(OCc5ccccc5)c(C(F)(F)F)c4)c3c2)o1
4 | < 5 | CS(=O)(=O)CCNCc1ccc(-c2cc3c(Nc4ccc5c(cnn5Cc5ccccc5)c4)ncnc3cc2F)o1
5 | < 5 | CS(=O)(=O)CCNCc1ccc(-c2ccc3ncnc(Nc4ccc(OCc5cccc(F)c5)cc4)c3c2)o1
6 | < 5 | CS(=O)(=O)CCNCc1nc(-c2ccc3ncnc(Nc4ccc(OCc5cccc(F)c5)c(F)c4)c3c2)cs1
7 | < 5 | COc1cc2ncnc(Nc3ccc4c(cnn4Cc4ccccc4)c3)c2cc1-c1ccc(CNCCS(C)(=O)=O)o1
8 | 5 to 25 | COc1cc(Nc2ncnc3ccc(-c4csc(CNCCS(C)(=O)=O)n4)cc23)ccc1OCc1cccc(F)c1
9 | < 5 | CS(=O)(=O)CCNCc1ccc(-c2cc3c(Nc4ccc(S(=O)(=O)c5ccccc5)cc4)ncnc3cn2)o1
10 | < 5 | COc1cc2ncnc(Nc3ccc(S(=O)(=O)c4ccccc4)cc3)c2cc1-c1ccc(CNCCS(C)(=O)=O)o1
11 | < 5 | CS(=O)(=O)CCNCc1ccc(-c2cc3c(Nc4ccc(OCc5cccc(F)c5)cc4)ncnc3cn2)o1
12 | < 5 | COc1cc(Nc2ncnc3ccc(-c4ccc(CNCCS(C)(=O)=O)o4)cc23)ccc1OCc1cccc(F)c1
13 | 5 to 25 | CS(=O)(=O)CCNCc1ccc(-c2cc3c(Nc4ccc(S(=O)(=O)c5ccccc5)cc4)ncnc3cc2F)o1
14 | < 5 | CS(=O)(=O)CCNCc1nc(-c2ccc3ncnc(Nc4ccc(OCc5ccccc5)c(F)c4)c3c2)cs1
15 | < 5 | CS(=O)(=O)CCNCc1nc(-c2ccc3ncnc(Nc4ccc(OCc5ccccc5)cc4)c3c2)cs1
16 | < 5 | CS(=O)(=O)CCNCc1ccc(-c2ccc3ncnc(Nc4ccc(OCc5cccc(Br)c5)cc4)c3c2)o1

Row | IC50 [µM] | SMILES
17 | < 5 | COc1cc2ncnc(Nc3ccc(OCc4ccccc4)cc3)c2cc1-c1ccc(CNCCS(C)(=O)=O)o1
18 | < 5 | CS(=O)(=O)CCNCc1ccc(-c2cc3c(Nc4ccc(OCc5ccccc5)cc4)ncnc3cc2F)o1
19 | 5 to 25 | CS(=O)(=O)CCNCc1ccc(-c2ccc3ncnc(Nc4ccc(OCc5cccc(C(F)(F)F)c5)cc4)c3c2)o1
20 | < 5 | CS(=O)(=O)CCNCc1ccc(-c2ccc3ncnc(Nc4ccc(OCc5ccccc5)c(Cl)c4)c3c2)o1
21 | < 5 | CS(=O)(=O)CCNCc1nc(-c2ccc3ncnc(Nc4ccc5c(cnn5Cc5ccccc5)c4)c3c2)cs1
22 | < 5 | CS(=O)(=O)CCNCc1ccc(-c2cc3c(Nc4ccc(OCc5ccc(F)cc5)cc4)ncnc3cn2)o1
23 | 5 to 25 | CS(=O)(=O)CCNCc1ccoc1-c1ccc2ncnc(Nc3ccc(OCc4ccccc4)cc3)c2c1
24 | < 5 | CS(=O)(=O)CCNCc1ccc(-c2ccc3ncnc(Nc4ccc(OCc5cccc(F)c5)c(F)c4)c3c2)o1
25 | < 5 | CS(=O)(=O)CCNCc1coc(-c2cc3c(Nc4ccc(OCc5cccc(F)c5)cc4)ncnc3cn2)c1
26 | < 5 | CS(=O)(=O)CCNCc1nc(-c2ccc3ncnc(Nc4ccc5c(cnn5Cc5cccc(F)c5)c4)c3c2)cs1
27 | < 5 | CS(=O)(=O)CCNCc1ccc(-c2ccc3ncnc(Nc4ccc(OCc5ccccc5)c(F)c4)c3c2)o1
28 | < 5 | CS(=O)(=O)CCNCc1cccc(-c2cc3c(Nc4ccc(OCc5ccccc5)cc4)ncnc3cn2)c1
29 | < 5 | CS(=O)(=O)CCNCc1coc(-c2ccc3ncnc(Nc4ccc(OCc5ccccc5)cc4)c3c2)c1
30 | < 5 | CS(=O)(=O)CCNCc1ccc(-c2ccc3ncnc(Nc4ccc(S(=O)(=O)c5ccccc5)cc4)c3c2)o1
31 | 25 to 50 | CS(=O)(=O)CCNCc1nc(-c2ccc3ncnc(Nc4ccc(OCc5cccc(Br)c5)cc4)c3c2)cs1
32 | < 5 | CS(=O)(=O)CCNCc1nc(-c2ccc3ncnc(Nc4ccc(S(=O)(=O)c5ccccc5)cc4)c3c2)cs1
